What all share (assay): In vitro competitive activity-based protein profiling (gel-based, FP-Rh or HT-01 probe)
Type in all cases: biochemical

One assay has as its target T1, ABHD6 (Mus musculus, UniProt Q8R2Y0).
T1 construct: Proteomes (mouse brain membrane fraction or cell lysates); from tissue; host or cells: mouse brain membrane fraction (or cell lysates, not specified)
T1 sequence (Q8R2Y0 1-336): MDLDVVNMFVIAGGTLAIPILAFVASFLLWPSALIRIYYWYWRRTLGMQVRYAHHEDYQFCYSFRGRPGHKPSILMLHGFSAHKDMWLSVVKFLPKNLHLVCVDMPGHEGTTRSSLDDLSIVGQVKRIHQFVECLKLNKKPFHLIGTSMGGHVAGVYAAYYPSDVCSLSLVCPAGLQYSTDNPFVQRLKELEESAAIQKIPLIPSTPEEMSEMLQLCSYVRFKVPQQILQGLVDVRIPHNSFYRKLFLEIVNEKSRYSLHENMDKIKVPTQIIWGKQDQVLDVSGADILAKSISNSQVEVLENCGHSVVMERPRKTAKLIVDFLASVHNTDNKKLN
The note with it: for inhibition at 1 µM: 1 μM inhibitor, read-out: % Inhibition at 1 μM, C = ABHD6; for inhibition at 10 µM: 10 μM inhibitor, read-out: % Inhibition at 10 μM, C = ABHD6; for IC50: mouse brain membrane fraction or cell lysates, 30 min preincubation at 37° C., read-out: Mouse (IC50 value, nM) ABHD6. In a few lines: (§1)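 Mouse brain membrane proteome or cell lysate (1.0 mg/mL protein) was preincubated with inhibitor at varying concentrations for 30 min at 37° C, then labelled with FP-Rh or HT-01 for 30 min at 37° C. After SDS-PAGE, residual hydrolase activity was quantified as in-gel fluorescence of each band.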

The next assay concerns the target T2, FAAH (Mus musculus, UniProt O08914).
T2 construct: Proteomes (mouse brain membrane fraction or cell lysates); from tissue; host or cells: mouse brain membrane fraction (or cell lysates, not specified)
T2 sequence (O08914 1-579): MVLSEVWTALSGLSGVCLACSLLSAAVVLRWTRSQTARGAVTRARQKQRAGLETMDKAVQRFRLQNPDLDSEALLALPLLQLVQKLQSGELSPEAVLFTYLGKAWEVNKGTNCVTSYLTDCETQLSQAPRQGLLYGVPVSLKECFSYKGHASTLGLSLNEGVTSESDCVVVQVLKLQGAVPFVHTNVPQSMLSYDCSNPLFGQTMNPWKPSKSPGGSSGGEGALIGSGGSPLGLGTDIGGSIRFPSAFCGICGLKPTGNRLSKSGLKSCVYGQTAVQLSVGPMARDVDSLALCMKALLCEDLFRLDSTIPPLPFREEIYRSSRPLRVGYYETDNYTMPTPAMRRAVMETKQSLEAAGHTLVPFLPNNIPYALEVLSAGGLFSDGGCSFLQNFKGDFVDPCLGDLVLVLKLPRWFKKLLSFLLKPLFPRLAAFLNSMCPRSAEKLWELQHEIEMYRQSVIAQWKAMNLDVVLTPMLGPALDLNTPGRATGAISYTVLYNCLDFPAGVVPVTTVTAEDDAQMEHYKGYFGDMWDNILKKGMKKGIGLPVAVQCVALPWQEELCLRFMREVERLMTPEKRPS
The note with it: for inhibition at 1 µM: 1 μM inhibitor, read-out: % Inhibition at 1 μM, B = FAAH; for inhibition at 10 µM: 10 μM inhibitor, read-out: % Inhibition at 10 μM, B = FAAH; for IC50: mouse brain membrane fraction or cell lysates, 30 min preincubation at 37° C., read-out: Mouse (IC50 value, nM) FAAH. In outline: as §1

A further assay addresses T3, MAGL (Mus musculus, UniProt O35678).
T3 construct: Proteomes (mouse brain membrane fraction or cell lysates); from tissue; host or cells: mouse brain membrane fraction (or cell lysates, not specified)
T3 sequence (O35678 1-303): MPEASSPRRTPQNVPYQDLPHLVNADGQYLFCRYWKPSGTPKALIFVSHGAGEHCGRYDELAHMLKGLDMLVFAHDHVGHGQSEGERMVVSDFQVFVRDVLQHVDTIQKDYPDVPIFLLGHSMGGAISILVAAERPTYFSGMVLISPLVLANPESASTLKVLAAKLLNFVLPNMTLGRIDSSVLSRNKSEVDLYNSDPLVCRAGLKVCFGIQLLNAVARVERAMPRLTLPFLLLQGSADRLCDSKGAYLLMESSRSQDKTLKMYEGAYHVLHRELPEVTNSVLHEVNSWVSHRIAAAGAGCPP
The note with it: for inhibition at 1 µM: 1 μM inhibitor; for inhibition at 10 µM: 10 μM inhibitor; for IC50: mouse brain membrane fraction or cell lysates, 30 min preincubation at 37° C., read-out: Mouse (IC50 value, nM) MAGL. In a few lines:
as §1

The target of another assay is T4, PLA2G7 (Mus musculus, UniProt Q60963).
T4 construct: Proteomes (mouse brain membrane fraction or cell lysates); from tissue; host or cells: mouse brain membrane fraction (or cell lysates, not specified)
T4 sequence (Q60963 22-440): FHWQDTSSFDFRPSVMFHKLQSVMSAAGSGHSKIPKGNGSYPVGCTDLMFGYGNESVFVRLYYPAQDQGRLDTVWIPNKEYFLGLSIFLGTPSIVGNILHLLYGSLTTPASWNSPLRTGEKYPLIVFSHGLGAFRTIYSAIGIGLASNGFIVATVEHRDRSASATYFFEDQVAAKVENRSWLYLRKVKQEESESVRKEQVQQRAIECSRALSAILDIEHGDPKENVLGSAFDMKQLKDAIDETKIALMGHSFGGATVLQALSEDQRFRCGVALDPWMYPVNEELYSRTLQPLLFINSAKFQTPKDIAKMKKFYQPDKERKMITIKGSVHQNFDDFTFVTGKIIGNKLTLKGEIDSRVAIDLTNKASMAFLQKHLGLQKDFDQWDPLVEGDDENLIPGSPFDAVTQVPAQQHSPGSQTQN
To be noted: for inhibition at 1 µM: 1 μM inhibitor, read-out: % Inhibition at 1 μM, D = PLA2G7; for inhibition at 10 µM: 10 μM inhibitor, read-out: % Inhibition at 10 μM, D = PLA2G7; for IC50: mouse brain membrane fraction or cell lysates, 30 min preincubation at 37° C. In outline:
as §1

Read-outs that look alike come from different tables or passages of the source. Bounds are passed on as bounds.

The term inhibition denotes the change of the read-out against control, counted positive when it falls. For `COC(=O)c1cnn(C(=O)N2CCN(Cc3ccc4ccccc4c3)CC2)c1` [Example 15, Methyl 1-(4-(naphthalen-2-ylmethyl)piperazine-1-carbonyl)-1H-pyrazole-4-carboxylate], the inhibition at 1 µM at ABHD6, on FAAH, at MAGL and on PLA2G7 was over 75% in each case. In addition, the inhibition at 10 µM at ABHD6, on FAAH, at MAGL and on PLA2G7 was over 75% each time.

Turning to `CN1CCN(C(=O)n2cc(Cl)cn2)CC1` [Example 185, (4-Chloro-1H-pyrazol-1-yl)(4-methylpiperazin-1-yl)methanone], the inhibition at 1 µM on ABHD6 was over 75%; at FAAH, under 25%; at MAGL it was under 25%; at PLA2G7, under 25%. The inhibition at 10 µM on ABHD6 was over 75%; at FAAH, over 75%; on MAGL, 25 to 75%; on PLA2G7 it was over 75%.

On to `O=C(N1CCN(c2ccccc2N2CCCC2)CC1)n1cc(C(F)(F)F)cn1` [Example 239, (4-(2-(Pyrrolidin-1-yl)phenyl)piperazin-1-yl)(4-(trifluoromethyl)-1H-pyrazol-1-yl)methanone], for which the inhibition at 1 µM on ABHD6, on FAAH, on MAGL and on PLA2G7 was over 75% throughout. In addition, the inhibition at 10 µM at ABHD6, on FAAH, on MAGL and on PLA2G7 was over 75% in each case.

As for `N#Cc1cnn(C(=O)N2CCN(Cc3ccc(C(=O)N4CCCCC4)cc3F)CC2)c1` [Example 284, 1-(4-(2-Fluoro-4-(piperidine-1-carbonyl)benzyl)piperazine-1-carbonyl)-1H-pyrazole-4-carbonitrile], the inhibition at 1 µM at ABHD6 (gel-based competitive ABPP), on FAAH (gel-based competitive ABPP), on MAGL (gel-based competitive ABPP) and at PLA2G7 (gel-based competitive ABPP) was over 75% throughout. For the same molecule, the inhibition at 10 µM at ABHD6 (gel-based competitive ABPP), on FAAH (gel-based competitive ABPP), at MAGL (gel-based competitive ABPP) and at PLA2G7 (gel-based competitive ABPP) was over 75% in each case.

In the case of `CC(=O)N(C)CCN(C)C(=O)n1cc(C#N)cn1` [Example 181, 4-Cyano-N-methyl-N-(2-(N-methylacetamido)ethyl)-1H-pyrazole-1-carboxamide], the inhibition at 1 µM at ABHD6, at FAAH, at MAGL and on PLA2G7 was under 25% throughout. Besides, the inhibition at 10 µM at ABHD6 was over 75%; on FAAH, over 75%; at MAGL, under 25%; at PLA2G7 it was over 75%.

For orientation: IC50 means the concentration that gives 50% inhibition. Regarding `O=C(N1CCN(c2ccc(N3CCCC3)cc2)CC1)n1cc(C(F)(F)F)cn1` [Example 241, (4-(4-(Pyrrolidin-1-yl)phenyl)piperazin-1-yl)(4-(trifluoromethyl)-1H-pyrazol-1-yl)methanone], the inhibition at 1 µM at ABHD6, on FAAH, at MAGL and at PLA2G7 was over 75% in each case. The inhibition at 10 µM at ABHD6, at FAAH, on MAGL and at PLA2G7 was over 75% throughout. The IC50 on ABHD6, at FAAH, on MAGL and at PLA2G7 was under 100 nM in each case.

In the case of `COc1cc(-c2ccccc2)ccc1CN1CCN(C(=O)n2cc(C(=O)N3CCCC3)cn2)CC1` [Example 290, (4-((3-Methoxybiphenyl-4-yl)methyl)piperazin-1-yl)(4-(pyrrolidine-1-carbonyl)-1H-pyrazol-1-yl)methanone], the inhibition at 1 µM at ABHD6 (gel-based competitive ABPP) was over 75%; at FAAH (gel-based competitive ABPP), over 75%; at MAGL (gel-based competitive ABPP) it was over 75%; on PLA2G7 (gel-based competitive ABPP), under 25%. The inhibition at 10 µM on ABHD6 (gel-based competitive ABPP), on FAAH (gel-based competitive ABPP), at MAGL (gel-based competitive ABPP) and at PLA2G7 (gel-based competitive ABPP) was over 75% each time.

Take `N#Cc1cnn(C(=O)N2CCN(Cc3ccc4ccccc4c3)CC2)c1` [Example 12, 1-(4-(Naphthalen-2-ylmethyl)piperazine-1-carbonyl)-1H-pyrazole-4-carbonitrile]: the inhibition at 1 µM on ABHD6, on FAAH, at MAGL and on PLA2G7 was over 75% in each case. Further, the inhibition at 10 µM on ABHD6, at FAAH, on MAGL and at PLA2G7 was over 75% in each case.

For `O=C(N1CCN(Cc2ccc(Cl)cc2)CC1)n1cc(Cl)cn1` [Example 226, (4-Chloro-1H-pyrazol-1-yl)(4-(4-chlorobenzyl)piperazin-1-yl)methanone], the inhibition at 1 µM was over 75% at ABHD6, over 75% on FAAH, over 75% at MAGL and under 25% on PLA2G7. In addition, the half-inhibitory concentration (IC50) on ABHD6 was under 100 nM; at FAAH, under 100 nM; on MAGL it was under 100 nM; at PLA2G7 it was over 1000 nM.

Consider `Cc1cnn(C(=O)N2CCN(C(=O)OC(C)(C)C)CC2)c1` [Example 5, tert-Butyl 4-(4-methyl-1H-pyrazole-1-carbonyl)piperazine-1-carboxylate], for which the inhibition at 1 µM on ABHD6 is 25 to 75%; at FAAH it was under 25%; at MAGL, under 25%; at PLA2G7, over 75%. Also, the inhibition at 10 µM on ABHD6 was over 75%; on FAAH it was over 75%; at MAGL, 25 to 75%; at PLA2G7 it was over 75%.

The values above are taken from patent publication US10093630B2, “Pyrazole compounds and methods of making and using same” (ABIDE THERAPEUTICS, INC., priority 2014, dated 2018).
